# Test results reported in patent US20230085307A1, “PYRIDAZINONE COMPOUND AND HERBICIDE” (NISSAN CHEMICAL CORPORATION, priority 2019, published 2023).
# System: late watergrass
# Assay: Test Example 1: herbicidal activity, application before weed generation under submerged conditions (Table 16, symbol A)
# Format: in vivo, late watergrass (Echinochloa oryzicola)
# Settings: 320 g/ha applied herbicide
# Outline: (§1)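 Emulsion formulation, water-diluted to set dose, was put onto the flooded surface (4 cm depth, alluvial soil) the same day weeds were sown and 2.5-leaf rice transplanted. After 3 weeks at 25-30 °C under glass, each species was rated 0 (≤5% kill) to 5 (≥90% kill).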
row,Compound,Herbicidal effect on A: late watergrass (grade 0-5)
1,CCC(COc1ccc(-c2sc3ccccc3c2-c2c(O)c(C)nn(C)c2=O)cc1)OC (racemic) [1-230],5 (Herbicidal rate of 90% or more (almost completely withered))

# System: Japanese bulrush
# Assay: Test Example 1: herbicidal activity, application before weed generation under submerged conditions (Table 16, symbol B)
# Format: in vivo, Japanese bulrush (Schoenoplectus juncoides)
# Settings: 320 g/ha applied herbicide
# Outline: as §1
row,Compound,Herbicidal effect on B: Japanese bulrush (grade 0-5)
1,CCC(COc1ccc(-c2sc3ccccc3c2-c2c(O)c(C)nn(C)c2=O)cc1)OC (racemic) [1-230],5 (Herbicidal rate of 90% or more (almost completely withered))

# System: late watergrass
# Assay: Test Example 2: herbicidal activity, application during weed generation under submerged conditions (Table 17, symbol A)
# Format: in vivo, late watergrass (Echinochloa oryzicola)
# Settings: AAH 320 g/ha; application during weed generation, submerged conditions
# Outline: (§2)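 Herbicide emulsion, diluted with water to the chosen amount, is applied onto 4 cm floodwater over alluvial soil where the weeds were co-sown and raised at 25–30° C. Application timing: 1–2 leaves. Assessment: three weeks afterwards.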
row,Compound,"herbicidal effect rating, A: late watergrass"
1,CCC(COc1ccc(-c2sc3ccccc3c2-c2c(O)c(C)nn(C)c2=O)cc1)OC (racemic) [1-230],4 (Herbicidal rate of 70% or more and less than 90%)

# System: oval-leafed pondweed
# Assay: Test Example 2: herbicidal activity, application during weed generation under submerged conditions (Table 17, symbol C)
# Format: in vivo, oval-leafed pondweed (Monochoria vaginalis)
# Settings: AAH 320 g/ha; application during weed generation, submerged conditions
# Outline: as §2
row,Compound,"herbicidal effect rating, C: oval-leafed pondweed"
1,CCC(COc1ccc(-c2sc3ccccc3c2-c2c(O)c(C)nn(C)c2=O)cc1)OC (racemic) [1-230],4 (Herbicidal rate of 70% or more and less than 90%)

# System: barnyard grass
# Assay: Test Example 3: herbicidal effect by foliage application, Wagner pot (Table 18, symbol H)
# Format: in vivo, barnyard grass (Echinochloa crus-galli)
# Settings: 320 g/ha
# Outline: (§3)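 Plants were sown in alluvial soil held under 0.1–0.5 cm standing water and grown 14 days in a greenhouse at 25–30 °C. An emulsifiable formulation, water-diluted to the set dose, was then sprayed onto the foliage, and effects were scored three weeks later using previously defined criteria.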
row,Compound,"herbicidal effect on H (barnyard grass), rating 0-5"
1,CCC(COc1ccc(-c2sc3ccccc3c2-c2c(O)c(C)nn(C)c2=O)cc1)OC (racemic) [1-230],5 (Herbicidal rate of 90% or more (almost completely withered))

# System: Chinese sprangletop
# Assay: Test Example 3: herbicidal effect by foliage application, Wagner pot (Table 18, symbol D)
# Format: in vivo, chinese sprangletop (Leptochloa chinensis)
# Settings: 320 g/ha
# Outline: as §3
row,Compound,"herbicidal effect on D (Chinese sprangletop), rating 0-5"
1,CCC(COc1ccc(-c2sc3ccccc3c2-c2c(O)c(C)nn(C)c2=O)cc1)OC (racemic) [1-230],5 (Herbicidal rate of 90% or more (almost completely withered))

# System: rice flat sedge
# Assay: Test Example 3: herbicidal effect by foliage application, Wagner pot (Table 18, symbol E)
# Format: in vivo, rice flat sedge (Cyperus iria)
# Settings: 320 g/ha
# Outline: as §3
row,Compound,"herbicidal effect on E (rice flat sedge), rating 0-5"
1,CCC(COc1ccc(-c2sc3ccccc3c2-c2c(O)c(C)nn(C)c2=O)cc1)OC (racemic) [1-230],3 (Herbicidal rate of 40% or more and less than 70%)

# System: Italian ryegrass
# Assay: Test Example 4: herbicidal effect by soil treatment (Table 19, symbol K)
# Format: in vivo, Italian ryegrass (Lolium multiflorum)
# Settings: AAH 320 g/ha
# Outline: (§4)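 Pre-emergence style soil spray: seeds under ~1.5 cm sterilized diluvial soil received a uniform coat of emulsion diluted to the predetermined herbicide amount. Greenhouse 25–30° C; readout at week three on previously defined criteria.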
row,Compound,"K: Italian ryegrass, herbicidal effect rating"
1,CCC(COc1ccc(-c2sc3ccccc3c2-c2c(O)c(C)nn(C)c2=O)cc1)OC (racemic) [1-230],4 (Herbicidal rate of 70% or more and less than 90%)

# System: windgrass
# Assay: Test Example 4: herbicidal effect by soil treatment (Table 19, symbol L)
# Format: in vivo, windgrass (Apera spica-venti)
# Settings: AAH 320 g/ha
# Outline: as §4
row,Compound,"L: windgrass, herbicidal effect rating"
1,CCC(COc1ccc(-c2sc3ccccc3c2-c2c(O)c(C)nn(C)c2=O)cc1)OC (racemic) [1-230],0 (Herbicidal rate of 5% or less (almost no effect))

# System: redroot pigweed
# Assay: Test Example 4: herbicidal effect by soil treatment (Table 19, symbol N)
# Format: in vivo, redroot pigweed (Amaranthus retroflexus)
# Settings: AAH 320 g/ha
# Outline: as §4
row,Compound,"N: redroot pigweed, herbicidal effect rating"
1,CCC(COc1ccc(-c2sc3ccccc3c2-c2c(O)c(C)nn(C)c2=O)cc1)OC (racemic) [1-230],5 (Herbicidal rate of 90% or more (almost completely withered))

# System: southern crabgrass
# Assay: Test Example 5: herbicidal effect by foliage application, plastic box (Table 20, symbol F)
# Format: in vivo, southern crabgrass (Digitaria ciliaris)
# Settings: foliage application, 320 g/ha, 3 weeks after application
# Outline: (§5)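 Plants were sown into sterilized diluvial soil under about 1.5 cm cover and kept in a greenhouse at 25° C. to 30° C. Fourteen days on, foliage received an even spray of the diluted emulsion. Herbicidal or crop effect was judged three weeks afterwards.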
row,Compound,effect on southern crabgrass (F)
1,CCC(COc1ccc(-c2sc3ccccc3c2-c2c(O)c(C)nn(C)c2=O)cc1)OC (racemic) [1-230],5 (Herbicidal rate of 90% or more (almost completely withered))

# System: green foxtail
# Assay: Test Example 5: herbicidal effect by foliage application, plastic box (Table 20, symbol G)
# Format: in vivo, green foxtail (Setaria viridis)
# Settings: foliage application, 320 g/ha, 3 weeks after application
# Outline: as §5
row,Compound,effect on green foxtail (G)
1,CCC(COc1ccc(-c2sc3ccccc3c2-c2c(O)c(C)nn(C)c2=O)cc1)OC (racemic) [1-230],5 (Herbicidal rate of 90% or more (almost completely withered))

# System: barnyard grass
# Assay: Test Example 5: herbicidal effect by foliage application, plastic box (Table 20, symbol H)
# Format: in vivo, barnyard grass (Echinochloa crus-galli)
# Settings: foliage application, 320 g/ha, 3 weeks after application
# Outline: as §5
row,Compound,effect on barnyard grass (H)
1,CCC(COc1ccc(-c2sc3ccccc3c2-c2c(O)c(C)nn(C)c2=O)cc1)OC (racemic) [1-230],5 (Herbicidal rate of 90% or more (almost completely withered))

# System: wild oat
# Assay: Test Example 5: herbicidal effect by foliage application, plastic box (Table 20, symbol I)
# Format: in vivo, wild oat (Avena fatua)
# Settings: foliage application, 320 g/ha, 3 weeks after application
# Outline: as §5
row,Compound,effect on wild oat (I)
1,CCC(COc1ccc(-c2sc3ccccc3c2-c2c(O)c(C)nn(C)c2=O)cc1)OC (racemic) [1-230],4 (Herbicidal rate of 70% or more and less than 90%)

# System: blackgrass
# Assay: Test Example 5: herbicidal effect by foliage application, plastic box (Table 20, symbol J)
# Format: in vivo, blackgrass (Alopecurus myosuroides)
# Settings: foliage application, 320 g/ha, 3 weeks after application
# Outline: as §5
row,Compound,effect on blackgrass (J)
1,CCC(COc1ccc(-c2sc3ccccc3c2-c2c(O)c(C)nn(C)c2=O)cc1)OC (racemic) [1-230],5 (Herbicidal rate of 90% or more (almost completely withered))

# System: persian speedwell
# Assay: Test Example 5: herbicidal effect by foliage application, plastic box (Table 20, symbol R)
# Format: in vivo, Persian speedwell (Veronica persica)
# Settings: foliage application, 320 g/ha, 3 weeks after application
# Outline: as §5
row,Compound,effect on persian speedwell (R)
1,CCC(COc1ccc(-c2sc3ccccc3c2-c2c(O)c(C)nn(C)c2=O)cc1)OC (racemic) [1-230],5 (Herbicidal rate of 90% or more (almost completely withered))
